According to US9428753B2, “Use of LXR antagonists for treatment of side effects of elevated glucocorticoid levels” (The Governing Council of the University of Toronto, priority 2013, dated 2016):

What was measured:
[1] = molecular target: T1, LXRβ (Homo sapiens, UniProt P55055); assay: GAL4-LXRβ / UAS-luc transfection assay in mouse primary hepatocytes
T1 sequence (P55055 222-460 limits assumed): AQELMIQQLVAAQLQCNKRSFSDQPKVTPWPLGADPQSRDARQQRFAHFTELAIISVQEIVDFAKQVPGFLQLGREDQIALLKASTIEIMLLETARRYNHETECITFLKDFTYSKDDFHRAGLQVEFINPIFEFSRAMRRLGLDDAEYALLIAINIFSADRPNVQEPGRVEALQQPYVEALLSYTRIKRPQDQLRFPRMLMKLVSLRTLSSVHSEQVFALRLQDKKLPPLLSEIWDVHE
Description: RLU=relative luciferase units.

[2] = tested on: Srebp-1c; assay: Srebp-1c gene expression in mouse primary hepatocytes; format: cell-based; settings: WT, LXRα−/− and LXRβ−/− hepatocytes; 250 nM T09 + 10 μM GSK2033

Question: With `Cc1cc(C)c(S(=O)(=O)N(Cc2ccc(-c3cccc(S(C)(=O)=O)c3)cc2)Cc2ccc(C(F)(F)F)o2)c(C)c1` [GSK2033, 2,4,6-trimethyl-N-((3′-(methylsulfonyl)-[1,1′-biphenyl]-4-yl)methyl)-N-((5-(trifluoromethyl)furan-2-yl)methyl)benzenesulfonamide] as the molecule, how does the IC50 [1] read?
Answer: 292 nM

Question: What about the “right-shift of LXRβ IC50, primary hepatocytes vs HEK293” value [1] of the same molecule?
Answer: ~10 fold

Question: What about the “selectivity for LXRβ vs. LXRα” value ([1]; in hepatocytes) of the same molecule?
Answer: 2.5 fold

Question: What about the “T09 induction of Srebp-1c under GSK2033 co-treatment” value [2] of the same molecule?
Answer: significantly decreased
